# According to US20190197375A1, “TRACEABLE METALLIC PRODUCTS AND METALLIC SUPPORT FOR NANOSTORAGE” (9163-0384 QUEBÉC INC., priority 2013, published 2019):
# Legend:
# S. aureus [1] = test: Antibacterial activity of anodized disk impregnated with benzalkonium chloride, deposited 5 min on agar plate lawn; format: cell-based; settings: anodized disk soaked 10 min, FIG. 4
# Protocol: Anodized and non-anodized aluminum disks were compared for incorporation/storage and recovery/diffusion of a chemical antibacterial compound. Briefly, anodized and non-anodized disks were prepared as described hereinbefore. The disks were then impregnated or not with benzalkonium chloride (an antibacterial) by soaking 10 min at room temperature and rinsed several times with water.
# The disks were then tested for diffusion of the antimicrobial benzalkonium by measuring their respective antibacterial activity when deposited for 5 min on an agar plate lawn of S. aureus. […] This confirms incorporation and subsequent release of the antibacterial chemical from the anodized porous surface layer.
# S. aureus [2] = test: Long term conservation: antibacterial activity of impregnated anodized aluminum disks after storage; format: cell-based; settings: disks impregnated 4 years ago, 2.12% w/v; deposition 5 min on agar plate lawn
# Protocol: An experiment was designed to evaluate the presence and integrity of samples stored in the anodized metallic support.
# The antimicrobial activity was measured by diffusion of the antimicrobial benzalkonium following deposition for 5 min on an agar plate lawn of S. aureus (results not shown).
substance,measurement,setting,value
benzalkonium chloride,Inhibition of bacterial growth by impregnated anodized disk,S. aureus [1],successfully inhibited bacterial growth
same,Antibacterial activity after storage in anodized aluminum disks,S. aureus [2],still possible to measure antibacterial activity
